In PubChem BioAssay (NCI):
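Following 48 hours of exposure in 96-well plates, responses at five concentrations were used to interpolate endpoints linearly. TGI: total growth inhibition.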

What was measured:
Experiment in all cases: DTP human tumour cell line panel, 48 h
[1] = tested on: 786-0 renal
[2] = tested on: A498 renal
[3] = tested on: A549 NSCLC
[4] = tested on: ACHN renal
[5] = tested on: BT-549 breast
[6] = tested on: CAKI-1 renal
[7] = tested on: CCRF-CEM leukemia
[8] = tested on: COLO 205 colon
[9] = tested on: DU-145 prostate
[10] = tested on: EKVX NSCLC
[11] = tested on: HCC-2998 colon
[12] = tested on: HCT-116 colon
[13] = tested on: HCT-15 colon
[14] = tested on: HOP-62 NSCLC
[15] = tested on: HS 578T breast
[16] = tested on: HT29 colon
[17] = tested on: IGROV1 ovarian
[18] = tested on: KM12 colon
[19] = tested on: LOX IMVI melanoma
[20] = tested on: M14 melanoma
[21] = tested on: MCF7 breast
[22] = tested on: MDA-MB-231 breast
[23] = tested on: MDA-MB-435
[24] = tested on: MDA-N
[25] = tested on: MOLT-4 leukemia
[26] = tested on: NCI-H226 lung
[27] = tested on: NCI-H23 lung
[28] = tested on: NCI-H460 lung
[29] = tested on: NCI-H522 lung
[30] = tested on: NCI/ADR-RES ovarian
[31] = tested on: OVCAR-3 ovarian
[32] = tested on: OVCAR-5 ovarian
[33] = tested on: OVCAR-8 ovarian
[34] = tested on: PC-3 prostate
[35] = tested on: RPMI-8226 leukemia
[36] = tested on: SF-268 CNS
[37] = tested on: SF-295 CNS
[38] = tested on: SF-539 CNS
[39] = tested on: SK-MEL-2 melanoma
[40] = tested on: SK-MEL-28 melanoma
[41] = tested on: SK-MEL-5 melanoma
[42] = tested on: SN12C renal
[43] = tested on: SNB-19 CNS
[44] = tested on: SNB-75 CNS
[45] = tested on: SR leukemia
[46] = tested on: SW-620 colon
[47] = tested on: T-47D breast
[48] = tested on: TK-10 renal
[49] = tested on: U251 CNS
[50] = tested on: UACC-257 melanoma
[51] = tested on: UACC-62 melanoma
[52] = tested on: UO-31 renal

Work on C=C1C[C@@H]2O[C@H]3[C@H]4[C@@H](C[C@@H](C)[C@@H](OC(C)=O)[C@H]42)[C@@H](C)CO[C@@]3(C)[C@H](OC(=O)CCCCCCC)CC1=O yielded a TGI [1] of 29.1 µM, a TGI [2] of 32.5 µM and a TGI [3] of 35.2 µM. It also gave a TGI [4] of 29.5 µM, a TGI [5] of 36.9 µM and a TGI [6] of 33.5 µM. The TGI [7] was 23.8 µM, the TGI [8] was 27.3 µM and the TGI [9] was 31.4 µM. For the same molecule, the TGI [10] was 32.9 µM, the TGI [11] was 30.8 µM and the TGI [12] was 32 µM. The TGI [13] was 28.9 µM, the TGI [14] was 29.8 µM and the TGI [15] was 39.7 µM. For the same molecule, the TGI [16] was > 100 µM, the TGI [17] was 48.4 µM and the TGI [18] was 26.2 µM. For the same molecule, the TGI [19] was 30.1 µM, the TGI [20] was 29.1 µM and the TGI [21] was 35.9 µM. For the same molecule, the TGI [22] was 36.7 µM, the TGI [23] was 30.8 µM and the TGI [24] was 31 µM. The TGI [25] was 40.8 µM, the TGI [26] was 42.9 µM and the TGI [27] was 40.1 µM. The TGI [28] was 24.2 µM, the TGI [29] was 42.6 µM and the TGI [30] was 35.5 µM. For the same molecule, the TGI [31] was 32 µM, the TGI [32] was 21.1 µM and the TGI [33] was 30.9 µM. For the same molecule, the TGI [34] was 22.5 µM, the TGI [35] was 13.1 µM and the TGI [36] was 36.9 µM. For the same molecule, the TGI [37] was 33.6 µM, the TGI [38] was 38 µM and the TGI [39] was 35 µM. The TGI [40] was 28.7 µM, the TGI [41] was 28.4 µM and the TGI [42] was 30.2 µM. For the same molecule, the TGI [43] was > 100 µM, the TGI [44] was 24.8 µM and the TGI [45] was 37.2 µM. It also gave a TGI [46] of 29.8 µM, a TGI [47] of 31.5 µM and a TGI [48] of 32.7 µM. For the same molecule, the TGI [49] was 32.5 µM, the TGI [50] was 30.7 µM and the TGI [51] was 32.1 µM. The TGI [52] was 29.5 µM.
